Measurements taken from patent US20260027116A1, “Methods of Treating Chronic Graft-Versus-Host Disease Following Allogeneic Hematopoietic Stem Cell Transplantation” (Kadmon Corporation, LLC, priority 2022, published 2026).
Where a name gives a salt, the structure may show the parent alone.

Columns and labels:
[1] = solubility of belumosudil mesylate; type: physicochemical
Experimental: The tablet film consists of polyvinyl alcohol, polyethylene glycol, talc, titanium dioxide and yellow iron oxide. Each 200 mg tablet is a pale yellow film-coated oblong tablet debossed with “KDM” on one side and “200” on the other side. Tablets are stored at room temperature, 20° C. to 25° C. (68° F. to 77° F.); excursions permitted from 15° C. and 30° C. (59° F. to 86° F.).

cGVHD = settings: in vivo; cited from earlier work

## CC(C)NC(=O)COc1cccc(-c2nc(Nc3ccc4[nH]ncc4c3)c3ccccc3n2)c1 [Belumosudil mesylate, 2-{3-[4-(1H-indazol-5-ylamino)-2-quinazolinyl]phenoxy}-N-(propan-2-yl) acetamide methanesulfonate (1:1)]
[1]
  solubility in DMF: slightly soluble
  solubility in DMSO: soluble
  solubility in methanol: slightly soluble
  solubility in water: practically insoluble

## C=CC(=O)N1CCC[C@@H](n2nc(-c3ccc(Oc4ccccc4)cc3)c3c(N)ncnc32)C1 [ibrutinib]
cGVHD
  discontinuation rate because of TEAEs: 43%
